Patent US9149475B2, “Protein kinase C inhibitors and uses thereof” (Rigel Pharmaceuticals, Inc., priority 2009, dated 2015)
Where a name gives a salt, the structure may show the parent alone.

Each compound was assayed on Human primary T cells (assay: IL-2 ELISA, human primary T cell, anti-CD3+CD28+ (whole cell assay)). Conditions: Homo sapiens, T-cell, 24 h, human primary T cells stimulated with anti-CD3 + anti-CD28, 24 hours.
Type: cell-based
Experimental: (§1) Human primary T cells were prepared as follows. Whole blood was obtained from a healthy volunteer, mixed 1:1 with PBS, layered on to Ficoll Hypaque (Amersham Pharmacia Biotech, Piscataway, N.J., Catalog #17-1440-03) in 2:1 blood/PBS:ficoll ratio and centrifuged for 30 minutes at 4° C. at 1750 rpm. The cells at the serum:ficoll interface were recovered and washed twice with 5 volumes of PBS. These freshly isolated human peripheral blood mononuclear cells were cultured in Yssel's medium containing 40 U/mL IL2 in a flask pre-coated with 1 μg/mL αCD3 and 5 μg/mL αCD28 (Anti-Human CD3, BD Pharmingen Catalog #555336, Anti-Human CD28, Beckman Coulter Catalog #IM1376). The cells were stimulated for 3-4 days, then transferred to a fresh flask and maintained in RPMI (RPMI-1640 with L-Glutamine; Mediatech, Inc., Herndon Va., cat. #10-040-CM) with 10% FBS and 40 U/mL IL-2. The primary T-cells were then washed twice with PBS to remove the IL-2.
Human primary T cells (100,000 cells per well) were pre-incubated with or without test compound in Yssel's medium for 1 hr at 37° C. Cells were then stimulated by transferring them to round-bottom 96-well plates pre-coated with 1 μg/ml μCD3 and 5 μg/ml μCD28. For counter assay, cells were instead stimulated by adding 8× stock solutions of PMA and ionomycin in Yssels (for final concentrations of 0.5 ng/ml PMA and 0.1 μM ionomycin, both from Calbiochem). Cells were incubated at 37° C. for 24 hours before 100 μL supernatants were harvested for quantification of IL-2 by ELISA using Human IL-2 Duoset ELISA Kit from R and D Systems, Cat. #DY202E.
as §1, with “Human primary T cell isolation and culture: Human primary” for “Human primary”, “for 30 min at 4°” for “for 30 minutes at 4°”, “at the serum: ficoll interface were” for “at the serum:ficoll interface were”
Primary T cell stimulation and IL2 ELISA: Human primary T cells (100,000 cells per well) were pre-incubated with or without test compound in Yssel's medium for 1 hr at 37° C. Cells were then stimulated by transferring them to round-bottom 96-well plates pre-coated with 1 μg/ml αCD3 and 5 μg/ml αCD28. For counter assay, cells were instead stimulated by adding 8× stock solutions of PMA and ionomycin in Yssels (for final concentrations of 0.5 ng/ml PMA and 0.1 μM ionomycin, both from Calbiochem). Cells were incubated at 37° C. for 24 hours before 100 μL supernatants were harvested for quantification of IL-2 by ELISA using Human IL-2 Duoset ELISA Kit from R and D Systems, Cat. #DY202E.

| SMILES | IC50 [nM] |
| --- | --- |
| CC(=O)N1CCC(Oc2ccc(Nc3ncc(F)c(NC4CC(C)(C)NC(C)(C)C4)n3)cc2F)CC1 [III-13, 1-(4-(2-fluoro-4-(5-fluoro-4-(2,2,6,6-tetramethylpiperidin-4-ylamino)pyrimidin-2-ylamino)phenoxy)piperidin-1-yl)ethanone] | > 1000 |
| Cc1nnnn1-c1cc(Nc2ncc(F)c(NC3CC(C)(C)NC(C)(C)C3)n2)ccc1OC1CCN(C(C)C)CC1 [III-2, 5-fluoro-N2-(4-(1-isopropylpiperidin-4-yloxy)-3-(5-methyl-1H-tetrazol-1-yl)phenyl)-N4-(2,2,6,6-tetramethylpiperidin-4-yl)pyrimidine-2,4-diamine] | > 1000 |
| CN1C(C)(C)CC(Nc2nc(Nc3cc(F)cc(OCCn4cncn4)c3)ncc2F)CC1(C)C [Compound I-40, N2-(3-(2-(1H-1,2,4-triazol-1-yl)ethoxy)-5-fluorophenyl)-5-fluoro-N4-(1,2,2,6,6-pentamethylpiperidin-4-yl)pyrimidine-2,4-diamine] | 500 to 1000 |
| CC1CC(Nc2nc(Nc3cccc(-n4nnnc4SCC(F)(F)F)c3)ncc2F)CC(C)N1C1CC1 (centres unmarked) [III-9, N^4-(1-cyclopropyl-2,6-dimethylpiperidin-4-yl)-5-fluoro-N2-(3-(5-(2,2,2-trifluoroethylthio)-1H-tetrazol-1-yl)phenyl)pyrimidine-2,4-diamine] | 250 to 500 |
| CC(C)N1CCCC(Oc2ccc(Nc3ncc(F)c(NC4CC(C)(C)N(C)C(C)(C)C4)n3)cc2OC(F)F)CC1 (centres unmarked) [III-41, N2-(3-(difluoromethoxy)-4-(1-isopropylazepan-4-yloxy)phenyl)-5-fluoro-N4-(1,2,2,6,6-pentamethylpiperidin-4-yl)pyrimidine-2,4-diamine] | < 250 |
| CCOc1ccc(Nc2ncc(F)c(NC3CC(C)(C)NC(C)(C)C3)n2)cc1-n1c(C)ccc1C [Compound I-14, N2-(4-ethoxy-3-(2,5-dimethyl-1H-pyrrol-1-yl)phenyl)-5-fluoro-N4-(2,2,6,6-tetramethylpiperidin-4-yl)pyrimidine-2,4-diamine] | 500 to 1000 |
| CC(C)N1CCC(Oc2ccc(Nc3ncc(F)c(NC4CC(C)(C)N(C)C(C)(C)C4)n3)cc2OC(F)F)C(F)C1 (centres unmarked) [III-103, N2-(3-(difluoromethoxy)-4-(3-fluoro-1-isopropylpiperidin-4-yloxy)phenyl)-5-fluoro-N4-(1,2,2,6,6-pentamethylpiperidin-4-yl)pyrimidine-2,4-diamine trifluoroacetate salt] | 250 to 500 |
| CC(C)N1CCCC(Oc2ccc(Nc3ncc(F)c(NC4CC(C)(C)NC(C)(C)C4)n3)cc2OC(F)F)CC1 (centres unmarked) [III-40, N2-(3-(difluoromethoxy)-4-(1-isopropylazepan-4-yloxy)phenyl)-5-fluoro-N4-(2,2,6,6-tetramethylpiperidin-4-yl)pyrimidine-2,4-diamine] | 250 to 500 |
| CN1C(C)(C)CC(Nc2nc(Nc3ccc(OCCN4CCCC4)c(OC(F)F)c3)ncc2F)CC1(C)C [Compound I-46, N2-(4-(2-(pyrrolidin-1-yl)ethoxy)-3-(difluoromethoxy)phenyl)-5-fluoro-N4-(1,2,2,6,6-pentamethylpiperidin-4-yl)pyrimidine-2,4-diamine] | < 250 |
| Cc1ccc(C)n1-c1cc(Nc2ncc(F)c(NC3CC(C)(C)NC(C)(C)C3)n2)cnc1OC(C)C [Compound I-116, 5-fluoro-N2-(6-isopropoxy-5-(2,5-dimethyl-1H-pyrrol-1-yl)pyridin-3-yl)-N4-(2,2,6,6-tetramethylpiperidin-4-yl)pyrimidine-2,4-diamine] | 500 to 1000 |
| CC(C)N1CCC(Oc2ccc(Nc3ncc(F)c(NC4CC(C)(C)N(C)C(C)(C)C4)n3)cc2C#N)CC1 [Compound I-151, 2-(1-isopropylpiperidin-4-yloxy)-5-(4-(1,2,2,6,6-pentamethylpiperidin-4-ylamino)-5-fluoropyrimidin-2-ylamino)benzonitrile] | 500 to 1000 |
| CN1C(C)(C)CC(Nc2nc(Nc3cccc(-c4nn[nH]n4)c3)ncc2F)CC1(C)C [III-68, N2-(3-(2H-tetrazol-5-yl)phenyl)-5-fluoro-N4-(1,2,2,6,6-pentamethylpiperidin-4-yl)pyrimidine-2,4-diamine] | > 1000 |
| CC1(C)CC(Nc2nc(Nc3ccc(OC4CCN(S(C)(=O)=O)CC4)c(F)c3)ncc2F)CC(C)(C)N1 [III-15, 5-fluoro-N2-(3-fluoro-4-(1-(methylsulfonyl)piperidin-4-yloxy)phenyl)-N4-(2,2,6,6-tetramethylpiperidin-4-yl)pyrimidine-2,4-diamine] | > 1000 |

Further lines, results first:

| IC50 [nM] | SMILES |
| --- | --- |
| < 250 | CN1C(C)(C)CC(Nc2nc(Nc3ccc(Oc4cccnc4)c(OC(F)F)c3)ncc2C#N)CC1(C)C [Compound I-52, 4-(1,2,2,6,6-pentamethylpiperidin-4-ylamino)-2-(3-(difluoromethoxy)-4-(pyridin-3-yloxy)phenylamino)pyrimidine-5-carbonitrile] |
| < 250 | Cc1cc(Nc2ncc(F)c(NC3CC(C)(C)N(C)C(C)(C)C3)n2)cc(-c2nnnn2C)c1 [III-133, 5-fluoro-N2-(3-methyl-5-(1-methyl-1H-tetrazol-5-yl)phenyl)-N4-(1,2,2,6,6-pentamethylpiperidin-4-yl)pyrimidine-2,4-diamine] |
| > 1000 | Cc1ccc(C)n1-c1cc(Nc2ncc(F)c(NC3CC(C)(C)NC(C)(C)C3)n2)ccc1OC(C)C [Compound I-16, N2-(4-isopropyloxy-3-(2,5-dimethyl-1H-pyrrol-1-yl)phenyl)-5-fluoro-N4-(2,2,6,6-tetramethylpiperidin-4-yl)pyrimidine-2,4-diamine] |
| 500 to 1000 | CC1(C)CC(Nc2nc(Nc3ccc(OCCn4ccnn4)c(OC(F)F)c3)ncc2C#N)CC(C)(C)N1 [Compound I-34, 4-(2,2,6,6-tetramethylpiperidin-4-ylamino)-2-(4-(2-(1H-1,2,3-triazol-1-yl)ethoxy)-3-(difluoromethoxy)phenylamino)pyrimidine-5-carbonitrile] |
| 500 to 1000 | CC(C)Oc1ncc(Nc2ncc(F)c(NC3CC(C)(C)NC(C)(C)C3)n2)cc1-c1nnnn1C(C)C [Compound I-132, 5-fluoro-N2-(6-isopropoxy-5-(1-isopropyl-1H-tetrazol-5-yl)pyridin-3-yl)-N4-(2,2,6,6-tetramethylpiperidin-4-yl)pyrimidine-2,4-diamine] |
| > 1000 | CC1(C)CC(Nc2nc(Nc3cc(F)c(OC4CCN(S(C)(=O)=O)CC4)c(F)c3)ncc2F)CC(C)(C)N1 [III-84, N2-(3,5-difluoro-4-(1-(methylsulfonyl)piperidin-4-yloxy)phenyl)-5-fluoro-N4-(2,2,6,6-tetramethylpiperidin-4-yl)pyrimidine-2,4-diamine] |
| > 1000 | CCNC(=O)N1CCCC(Oc2c(F)cc(Nc3ncc(F)c(NC4CC(C)(C)NC(C)(C)C4)n3)cc2F)CC1 (centres unmarked) [III-85, 4-(2,6-difluoro-4-(5-fluoro-4-(2,2,6,6-tetramethylpiperidin-4-ylamino)pyrimidin-2-ylamino)phenoxy)-N-ethylazepane-1-carboxamide] |
| 250 to 500 | CC(C)N1CC[C@@H](Oc2ccc(Nc3ncc(F)c(NC4CC(C)(C)NC(C)(C)C4)n3)cc2OC(F)F)C1 [Compound I-146, N2-(4-((R)-1-isopropylpyrrolidin-3-yloxy)-3-(difluoromethoxy)phenyl)-5-fluoro-N4-(2,2,6,6-tetramethylpiperidin-4-yl)pyrimidine-2,4-diamine] |

Same assay, conditions: human primary T cells stimulated with anti-CD3 + anti-CD28, 24 hours

| IC50 [nM] | SMILES |
| --- | --- |
| < 250 | Cc1ccc(C)n1-c1cc(Nc2ncc(F)c(NC3CC(C)(C)N(C)C(C)(C)C3)n2)ccc1F [Compound I-100, N2-[3-(2,5-Dimethyl-pyrrol-1-yl)-4-fluoro]phenyl-5-fluoro-N4-(1,2,2,6,6-pentamethylpiperidin-4-yl)-2,4-pyrimidinediamine] |
| < 250 | CC(C)N1CCC(Oc2ccc(Nc3ncc(F)c(NC4CC(C)(C)N(C)C(C)(C)C4)n3)cc2OC(F)F)C(F)C1 (centres unmarked) [III-105, N2-(3-(difluoromethoxy)-4-(3-fluoro-1-isopropylpiperidin-4-yloxy)phenyl)-5-fluoro-N4-(1,2,2,6,6-pentamethylpiperidin-4-yl)pyrimidine-2,4-diamine] |
